In the kinase profiling compilation of Christmann-Franck et al. (2016):

What was measured:
Test in all cases: radiometric filter-binding kinase assay
CHEK2 (human) = CHEK2 (human) (UniProt O96017); details: compound 100.0 µM; ATP 20 µM
MAPK1 (human) = MAPK1 (human) (UniProt P28482); details: compound 100.0 µM; ATP 20 µM
EPHA2 (human) = EPHA2 (human) (UniProt P29317); details: compound 100.0 µM; ATP 50 µM
ERBB4 (human) = ERBB4 (human) (UniProt Q15303); details: compound 100.0 µM; ATP 5 µM
TBK1 (human) = TBK1 (human) (UniProt Q9UHD2); details: compound 100.0 µM; ATP 50 µM
Chain of TBK1 (human) (Q9UHD2 whole entry, looked up): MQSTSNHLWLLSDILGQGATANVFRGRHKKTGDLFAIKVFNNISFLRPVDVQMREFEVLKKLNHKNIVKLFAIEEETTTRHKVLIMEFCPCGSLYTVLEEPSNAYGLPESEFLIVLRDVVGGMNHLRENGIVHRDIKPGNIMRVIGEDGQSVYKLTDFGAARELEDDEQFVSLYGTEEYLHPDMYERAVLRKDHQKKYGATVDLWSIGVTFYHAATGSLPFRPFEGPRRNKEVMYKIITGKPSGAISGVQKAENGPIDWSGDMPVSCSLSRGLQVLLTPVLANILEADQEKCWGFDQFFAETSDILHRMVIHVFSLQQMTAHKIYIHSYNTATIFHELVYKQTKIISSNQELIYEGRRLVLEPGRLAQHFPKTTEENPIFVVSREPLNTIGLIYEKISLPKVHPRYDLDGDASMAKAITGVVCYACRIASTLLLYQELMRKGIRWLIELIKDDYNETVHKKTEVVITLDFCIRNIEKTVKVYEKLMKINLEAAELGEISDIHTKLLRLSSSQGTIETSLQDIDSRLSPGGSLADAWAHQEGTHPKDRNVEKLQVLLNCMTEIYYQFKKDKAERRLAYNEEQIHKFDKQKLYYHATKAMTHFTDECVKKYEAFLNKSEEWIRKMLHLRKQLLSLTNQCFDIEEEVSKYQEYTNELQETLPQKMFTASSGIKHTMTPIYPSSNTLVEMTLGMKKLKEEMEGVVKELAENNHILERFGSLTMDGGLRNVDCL

[1] = tested on: PAK2 (human), Q13177 [T402E]; details: compound 100.0 µM; ATP 20 µM
PIM2 (human) = PIM2 (human) (UniProt Q9P1W9); details: compound 100.0 µM; ATP 5 µM
MYLK (human) = MYLK (human) (UniProt Q15746); details: compound 100.0 µM; ATP 50 µM
CSNK2A1 (human) = CSNK2A1 (human) (UniProt P68400); details: compound 100.0 µM; ATP 5 µM
EPHB1 (human) = EPHB1 (human) (UniProt P54762); details: compound 100.0 µM; ATP 20 µM
MAPKAPK5 (human) = MAPKAPK5 (human) (UniProt Q8IW41); details: compound 100.0 µM; ATP 20 µM
Chain of MAPKAPK5 (human) (Q8IW41 whole entry, looked up): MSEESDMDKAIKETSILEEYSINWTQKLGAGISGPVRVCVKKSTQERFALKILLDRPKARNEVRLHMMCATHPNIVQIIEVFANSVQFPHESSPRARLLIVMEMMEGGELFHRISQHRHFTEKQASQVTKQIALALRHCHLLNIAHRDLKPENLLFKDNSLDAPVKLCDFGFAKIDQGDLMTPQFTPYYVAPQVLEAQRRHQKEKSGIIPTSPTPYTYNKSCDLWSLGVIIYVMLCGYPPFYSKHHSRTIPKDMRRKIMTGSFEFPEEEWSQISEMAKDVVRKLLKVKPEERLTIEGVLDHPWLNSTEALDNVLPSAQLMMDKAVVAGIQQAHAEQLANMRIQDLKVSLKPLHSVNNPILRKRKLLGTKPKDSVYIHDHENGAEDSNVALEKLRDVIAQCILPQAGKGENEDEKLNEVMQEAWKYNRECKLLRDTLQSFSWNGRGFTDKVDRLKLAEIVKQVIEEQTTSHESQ

SRC (human) = SRC (human) (UniProt P12931); details: compound 100.0 µM; ATP 50 µM
PAK7 (human) = PAK7 (human) (UniProt Q9P286); details: compound 100.0 µM; ATP 20 µM
Chain of PAK7 (human) (Q9P286 whole entry, looked up): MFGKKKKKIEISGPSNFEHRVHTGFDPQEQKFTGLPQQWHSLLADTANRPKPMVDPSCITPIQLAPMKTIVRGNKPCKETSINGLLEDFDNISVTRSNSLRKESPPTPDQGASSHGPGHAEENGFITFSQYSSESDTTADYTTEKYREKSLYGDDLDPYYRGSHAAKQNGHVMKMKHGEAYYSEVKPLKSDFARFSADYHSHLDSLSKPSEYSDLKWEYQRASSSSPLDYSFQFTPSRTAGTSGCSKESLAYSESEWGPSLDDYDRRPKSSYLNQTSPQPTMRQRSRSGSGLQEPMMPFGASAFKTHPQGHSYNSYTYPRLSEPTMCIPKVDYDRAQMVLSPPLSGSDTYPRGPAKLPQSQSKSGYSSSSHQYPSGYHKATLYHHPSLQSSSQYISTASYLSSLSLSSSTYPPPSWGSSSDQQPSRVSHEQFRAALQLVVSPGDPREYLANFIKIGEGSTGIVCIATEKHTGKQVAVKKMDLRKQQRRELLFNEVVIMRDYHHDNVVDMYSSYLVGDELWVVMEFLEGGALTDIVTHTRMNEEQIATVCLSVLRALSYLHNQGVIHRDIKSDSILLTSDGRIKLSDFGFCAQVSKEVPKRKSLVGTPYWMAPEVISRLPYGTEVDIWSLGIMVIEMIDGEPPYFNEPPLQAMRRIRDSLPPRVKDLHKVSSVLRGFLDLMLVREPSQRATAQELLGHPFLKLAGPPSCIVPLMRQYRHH

MAPK8 (human) = MAPK8 (human) (UniProt P45983); details: compound 100.0 µM; ATP 20 µM
RPS6KA3 KD1 KD2 (human) = RPS6KA3 KD1 KD2 (human) (UniProt P51812); details: compound 100.0 µM; ATP 50 µM
DYRK3 (human) = DYRK3 (human) (UniProt O43781); details: compound 100.0 µM; ATP 5 µM
Chain of DYRK3 (human) (O43781 whole entry, looked up): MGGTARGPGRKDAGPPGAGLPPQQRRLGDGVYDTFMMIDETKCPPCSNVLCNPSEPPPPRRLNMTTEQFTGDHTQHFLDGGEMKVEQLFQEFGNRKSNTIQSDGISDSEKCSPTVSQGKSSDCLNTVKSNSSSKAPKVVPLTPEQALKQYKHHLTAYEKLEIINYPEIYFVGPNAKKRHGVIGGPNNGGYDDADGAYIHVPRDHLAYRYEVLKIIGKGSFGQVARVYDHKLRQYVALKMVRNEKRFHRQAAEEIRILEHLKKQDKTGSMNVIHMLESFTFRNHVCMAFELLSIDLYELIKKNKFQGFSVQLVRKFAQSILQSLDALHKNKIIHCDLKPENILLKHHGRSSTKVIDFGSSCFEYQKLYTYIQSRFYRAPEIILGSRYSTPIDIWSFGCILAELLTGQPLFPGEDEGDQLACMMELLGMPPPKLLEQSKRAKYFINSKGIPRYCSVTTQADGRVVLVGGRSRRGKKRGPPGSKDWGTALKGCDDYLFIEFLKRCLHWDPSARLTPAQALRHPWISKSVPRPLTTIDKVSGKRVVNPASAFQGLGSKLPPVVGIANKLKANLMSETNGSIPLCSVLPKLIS

MAPKAPK3 (human) = MAPKAPK3 (human) (UniProt Q16644); details: compound 100.0 µM; ATP 20 µM
EPHA4 (human) = EPHA4 (human) (UniProt P54764); details: compound 100.0 µM; ATP 50 µM
BRSK2 (human) = BRSK2 (human) (UniProt Q8IWQ3); details: compound 100.0 µM; ATP 50 µM
MAPK13 (human) = MAPK13 (human) (UniProt O15264); details: compound 100.0 µM; ATP 5 µM
TAOK1 (human) = TAOK1 (human) (UniProt Q7L7X3); details: compound 100.0 µM; ATP 20 µM
PRKCG (human) = PRKCG (human) (UniProt P05129); details: compound 100.0 µM; ATP 20 µM
FGFR1 (human) = FGFR1 (human) (UniProt P11362); details: compound 100.0 µM; ATP 20 µM
MAP3K9 (human) = MAP3K9 (human) (UniProt P80192); details: compound 100.0 µM; ATP 20 µM
IKBKE (human) = IKBKE (human) (UniProt Q14164); details: compound 100.0 µM; ATP 50 µM
MAPK9 (human) = MAPK9 (human) (UniProt P45984); details: compound 100.0 µM; ATP 20 µM
PAK4 (human) = PAK4 (human) (UniProt O96013); details: compound 100.0 µM; ATP 5 µM
HIPK1 (human) = HIPK1 (human) (UniProt Q86Z02); details: compound 100.0 µM; ATP 20 µM
DAPK1 (human) = DAPK1 (human) (UniProt P53355); details: compound 100.0 µM; ATP 5 µM
PRKCZ (human) = PRKCZ (human) (UniProt Q05513); details: compound 100.0 µM; ATP 5 µM
BRSK1 (human) = BRSK1 (human) (UniProt Q8TDC3); details: compound 100.0 µM; ATP 20 µM
RPS6KA5 KD1 KD2 (human) = RPS6KA5 KD1 KD2 (human) (UniProt O75582); details: compound 100.0 µM; ATP 20 µM
GCK (human) = GCK (human) (UniProt Q12851); details: compound 100.0 µM; ATP 20 µM
Chain of GCK (human) (Q12851 whole entry, looked up): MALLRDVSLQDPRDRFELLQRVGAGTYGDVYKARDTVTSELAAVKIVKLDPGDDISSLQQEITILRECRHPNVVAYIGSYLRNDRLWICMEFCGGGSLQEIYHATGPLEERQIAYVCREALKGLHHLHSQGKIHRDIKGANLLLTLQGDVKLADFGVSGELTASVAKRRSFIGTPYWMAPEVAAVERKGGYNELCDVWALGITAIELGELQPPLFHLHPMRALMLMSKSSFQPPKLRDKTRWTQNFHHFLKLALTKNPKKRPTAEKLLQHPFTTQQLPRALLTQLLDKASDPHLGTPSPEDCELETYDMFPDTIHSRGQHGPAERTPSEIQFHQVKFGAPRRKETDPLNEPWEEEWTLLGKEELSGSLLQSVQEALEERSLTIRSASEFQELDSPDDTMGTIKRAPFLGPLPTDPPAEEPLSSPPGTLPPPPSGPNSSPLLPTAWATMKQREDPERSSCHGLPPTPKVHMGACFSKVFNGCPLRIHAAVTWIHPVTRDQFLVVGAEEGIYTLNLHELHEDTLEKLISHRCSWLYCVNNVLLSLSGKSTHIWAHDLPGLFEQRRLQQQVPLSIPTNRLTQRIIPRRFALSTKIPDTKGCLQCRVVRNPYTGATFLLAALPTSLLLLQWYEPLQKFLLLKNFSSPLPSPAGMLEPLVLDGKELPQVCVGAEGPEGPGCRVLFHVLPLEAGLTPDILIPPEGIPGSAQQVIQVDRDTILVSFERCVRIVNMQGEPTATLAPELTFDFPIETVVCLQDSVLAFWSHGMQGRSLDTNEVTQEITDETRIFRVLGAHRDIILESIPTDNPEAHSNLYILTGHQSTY

MAPK14 (human) = MAPK14 (human) (UniProt Q16539); details: compound 100.0 µM; ATP 50 µM
NTRK1 (human) = NTRK1 (human) (UniProt P04629); details: compound 100.0 µM; ATP 20 µM
MAPK11 (human) = MAPK11 (human) (UniProt Q15759); details: compound 100.0 µM; ATP 20 µM

Chain of EPHA2 (human) (P29317 whole entry, looked up): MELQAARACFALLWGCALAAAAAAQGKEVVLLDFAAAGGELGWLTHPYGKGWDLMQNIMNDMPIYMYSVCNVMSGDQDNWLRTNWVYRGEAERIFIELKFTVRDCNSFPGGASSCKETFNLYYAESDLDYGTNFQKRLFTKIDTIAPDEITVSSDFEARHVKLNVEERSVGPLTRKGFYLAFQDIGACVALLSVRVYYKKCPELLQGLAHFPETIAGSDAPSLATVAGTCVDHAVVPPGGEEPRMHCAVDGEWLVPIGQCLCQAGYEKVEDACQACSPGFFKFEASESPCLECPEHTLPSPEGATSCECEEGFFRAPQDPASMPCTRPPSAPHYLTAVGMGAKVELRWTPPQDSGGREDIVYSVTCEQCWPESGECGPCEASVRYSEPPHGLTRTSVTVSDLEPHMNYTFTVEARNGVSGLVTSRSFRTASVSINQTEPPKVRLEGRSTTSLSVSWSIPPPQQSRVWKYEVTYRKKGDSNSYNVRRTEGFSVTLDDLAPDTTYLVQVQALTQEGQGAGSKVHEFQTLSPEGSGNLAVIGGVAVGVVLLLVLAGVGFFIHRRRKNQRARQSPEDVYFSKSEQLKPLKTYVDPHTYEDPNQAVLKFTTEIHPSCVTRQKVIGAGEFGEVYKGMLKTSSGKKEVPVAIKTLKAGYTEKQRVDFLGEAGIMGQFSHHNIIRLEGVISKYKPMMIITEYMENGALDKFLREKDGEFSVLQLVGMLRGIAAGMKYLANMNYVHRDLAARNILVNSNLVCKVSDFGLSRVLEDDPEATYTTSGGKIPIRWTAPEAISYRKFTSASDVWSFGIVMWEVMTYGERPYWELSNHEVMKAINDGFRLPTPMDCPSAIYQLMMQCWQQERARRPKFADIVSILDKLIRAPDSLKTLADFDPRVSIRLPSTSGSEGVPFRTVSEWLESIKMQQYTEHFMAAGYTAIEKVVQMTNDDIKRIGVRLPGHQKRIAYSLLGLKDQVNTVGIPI

Row | SMILES | inhibition (CHEK2 (human)) | inhibition (MAPK1 (human)) | inhibition (EPHA2 (human)) | inhibition (ERBB4 (human)) | inhibition (TBK1 (human)) | inhibition [1] | inhibition (PIM2 (human)) | inhibition (MYLK (human)) | inhibition (CSNK2A1 (human)) | inhibition (EPHB1 (human)) | inhibition (MAPKAPK5 (human)) | inhibition (SRC (human)) | inhibition (PAK7 (human)) | inhibition (MAPK8 (human)) | inhibition (RPS6KA3 KD1 KD2 (human)) | inhibition (DYRK3 (human)) | inhibition (MAPKAPK3 (human)) | inhibition (EPHA4 (human)) | inhibition (BRSK2 (human)) | inhibition (MAPK13 (human)) | also measured
1 | Nc1cnc2c(-c3c(F)cccc3F)cccn2c1=O | 25% | 13% | 33% | 65% | 23% | 41% | 21% | 25% | 94% | 0% | 83% | 35% | 35% | 41% | 52% | 12% | 54% | 25% | 43% | 0% | inhibition (TAOK1 (human)): 82%; inhibition (PRKCG (human)): 25%; inhibition (FGFR1 (human)): 88%; inhibition (MAP3K9 (human)): 79%; inhibition (IKBKE (human)): 13%; inhibition (MAPK9 (human)): 17%; inhibition (PAK4 (human)): 50%; inhibition (HIPK1 (human)): 11%; inhibition (DAPK1 (human)): 0%; inhibition (PRKCZ (human)): 0%; inhibition (BRSK1 (human)): 22%; inhibition (RPS6KA5 KD1 KD2 (human)): 33%; inhibition (GCK (human)): 95%; inhibition (MAPK14 (human)): 0%; inhibition (NTRK1 (human)): 88%; inhibition (MAPK11 (human)): 13%
2 | O=C(Nc1cnc2[nH]ccn2c1=O)c1ccccc1 | 32% | 10% | 31% | 25% | 14% | 12% | 9% | 36% | 11% | 17% | 17% | 8% | 3% | 0% | 10% | 18% | 33% | 16% | 27% | 0% | inhibition (TAOK1 (human)): 0%; inhibition (PRKCG (human)): 0%; inhibition (FGFR1 (human)): 14%; inhibition (MAP3K9 (human)): 2%; inhibition (IKBKE (human)): 3%; inhibition (MAPK9 (human)): 11%; inhibition (PAK4 (human)): 20%; inhibition (HIPK1 (human)): 24%; inhibition (DAPK1 (human)): 16%; inhibition (PRKCZ (human)): 3%; inhibition (BRSK1 (human)): 14%; inhibition (RPS6KA5 KD1 KD2 (human)): 4%; inhibition (GCK (human)): 6%; inhibition (MAPK14 (human)): 2%; inhibition (NTRK1 (human)): 39%; inhibition (MAPK11 (human)): 23%
3 | CC(=O)Nc1nc2cnc(-c3ccccc3)cn2n1 | 25% | 7% | 0% | 19% | 31% | 0% | 11% | 0% | 11% | 22% | 6% | 18% | 20% | 2% | 9% | 69% | 2% | 19% | 20% | 1% | inhibition (TAOK1 (human)): 0%; inhibition (PRKCG (human)): 2%; inhibition (FGFR1 (human)): 45%; inhibition (MAP3K9 (human)): 43%; inhibition (IKBKE (human)): 23%; inhibition (MAPK9 (human)): 1%; inhibition (PAK4 (human)): 47%; inhibition (HIPK1 (human)): 16%; inhibition (DAPK1 (human)): 12%; inhibition (PRKCZ (human)): 11%; inhibition (BRSK1 (human)): 23%; inhibition (RPS6KA5 KD1 KD2 (human)): 11%; inhibition (GCK (human)): 39%; inhibition (MAPK14 (human)): 10%; inhibition (NTRK1 (human)): 28%; inhibition (MAPK11 (human)): 22%
